# Assay results taken from patent publication EP1785417A2, “Novel non-psychotropic cannabinoids” (priority 2000, dated 2001).
# Where two headings read alike, the source gives them in different places.
# Key:
# NMDA receptor = assay: Radioligand binding: displacement of [3H]MK-801 from rat forebrain membranes; conditions: for NMDA receptor binding / affinity: MK-801 binding to membranes
# Excerpt: (§1) Evaluation of the therapeutic effects of the novel PRS-211 compounds has now been carried out in a series of experimental systems to support the utility of these drugs as neuroprotectants, anti-inflammatory agents and anti-oxidative agents. These effects have been evaluated both in vitro and in vivo, and have been corroborated utilizing the following systems: • (a) Binding to the NMDA receptor linked channel: Non competitive antagonists of NMDA, the primary example of which is the compound MK-801, bind to a site within the NMDA receptor channel thus preventing the activation of the receptor-channel complex and the consequent neurotoxicity. The ability of various compounds to compete with the binding of tritium labeled MK-801 to brain membranes is considered a measure of their potency as NMDA non-competitive antagonists. • (b) Inhibition of prostaglandin production: The inhibitory effect of the new derivatives of Dexanabinol on prostaglandin synthesis is evaluated in macrophage cell cultures following LPS exposure to induce the inflammatory response. These assays are an indication of the anti-inflammatory activity of the individual analogs. • (c) Inhibition of Tumor Necrosis Factor Alpha: Specific aspects of the inflammatory response cascade are mediated by the cytokine TNFα. Inhibition of TNFα production and/or inhibition of TNFα release by the new analogs are assayed in macrophage cell cultures activated with LPS. This serves as another indication of the general anti-inflammatory potential of the novel compounds. • (d) Nitric Oxide Assay: As one aspect of the anti-oxidative potential of the novel analogs they were tested for their ability to inhibit the enzyme nitric oxide synthase (NOS). This assay can also serve as another indication of the anti-inflammatory cascade, as well as the anti-oxidative mechanisms. • (e) Ear Edema model: The anti-inflammatory activity of the new analogs is screened using an ear edema model in mice. This test system utilizes Croton oil or Arachidonic acid as inflammation inducers. The ability of the test compounds to prevent or diminish the inflammatory response to these stimulants is indicative of their systemic anti-inflammatory capability. • (f) Improved clinical outcome after closed head injury in rats: Severe head injury is associated with high mortality and severe neurological impairment. Animals subjected to head trauma in a controlled fashion serve as models in which to test drugs of therapeutic potential. Test compounds can be evaluated both for improved clinical outcome and for reduction of edema induced by closed head injury. The ability of compounds to reduce the severity of neurological symptoms and to reduce brain edema is considered a measure of their potency in reducing brain damage. • (g) Transient Middle cerebral artery occlusion (MCAo): The middle cerebral artery is the cerebral blood vessel most susceptible to stroke in humans. In animals, coagulation, permanent ligation or permanent placement of an occluding thread in the artery produces a permanent focal stroke affecting the MCA territory. Transient ligation or occlusion results in transient focal stroke. Both transient and permanent focal strokes result in varying degrees of edema and infarction in the affected brain regions. The ability of compounds to reduce the volumes of edema and infarction is considered a measure of their potential as anti-stroke treatment. • (h) Optic Nerve Crush: Application of mechanical pressure to the rat optical nerve results in crush injury of the axons, which is accompanied by immediate changes in oxidative metabolism and delayed axonal death and blindness. […]
# PGE2 = assay: Inhibition of prostaglandin synthesis (PGE2) in LPS-stimulated macrophage cell cultures; format: cell-based; conditions: LPS-stimulated macrophages
# Excerpt: as §1
# TNFα = assay: Inhibition of TNFα in LPS-stimulated macrophage cell cultures (ELISA); format: cell-based; conditions: LPS-stimulated macrophages
# Excerpt: as §1
# [1] = system: Nitric Oxide Synthase (NOS); assay: Inhibition of nitric oxide synthase (nitrite fluorimetric assay, LPS-stimulated macrophage cultures); format: cell-based; conditions: LPS-stimulated macrophages
# Excerpt: as §1
# ear edema model in mice = assay: Ear edema model; format: in vivo; conditions: Mus musculus, Croton oil (CO) as inducer, IP
# Excerpt: as §1
# [2] = system: transient middle cerebral artery occlusion in rats; assay: Transient middle cerebral artery occlusion (MCAo), infarct size evaluation; format: in vivo; conditions: IV, one week after the ischemic insult
# Excerpt: Experimental design. The design was a randomized one, performed in a masked fashion as to whether drug or vehicle was being given, and an attempt was made to generate approximately equal numbers of drug- and vehicle-treated animals.
# • a. Male rats (8 /treatment group) 320-380 gr. (Harlan Israel). • b. Halothane (Rhone Poulenc France) • c. Pentobarbitone (Pental Veterinary, CTS Israel). • d. Poly - L - Lysine (Sigma, USA). • e. Silk suture material 3-0 and 4-0. • f. Nylon (Polyamid) suture material 3-0. Four cm pieces were cut and positioned in a solution of 1% Poly - L - Lysine for 1 minute and dried in an oven (60 ° C) for 60 minutes. The tip of each piece was rounded under a flame. • g. Saline (Teva Medical). • h. Blank cremophor ethanol cosolvent (Pharmos). • i. Dexanabinol in cremophor ethanol cosolvent 50 mg/ml. (Both Dexanabinol and its vehicle were diluted in saline prior to drug administration. • j. Analogs PRS-211,092, PRS-211,095, PRS-211,128 PRS-211,132 and PRS-211,220 in cremophor ethanol cosolvent, 50 mg/ml. • k. The analogs were diluted in saline prior to drug administration.
# • a. Surgical details of the MCAo method used for testing dexanabinol analogs, are presented in Belayev, et al., (Belayev, Busto, Weizhao, and Ginsberg, Stroke 26:2313-2319, 1995) which is incorporated herein in its entirety by reference. • b. Two hours after the start of MCAO, the animals were reanesthetized with halothane, the neck wound was re-opened and the nylon thread pulled out of the Internal carotid artery (ICA). The skin wound was then closed with 3-0 silk suture material and the animals allowed to recover from the anesthesia. • c. Three sets of animals were tested. In the first test immediately (2+0 hours) before thread removal the animals were injected IV with either analogs PRS-211,095, PRS-211,128, PRS-211,132, or Dexanabinol (PRS-211,007) each at a dosage of 5 mg/kg. One group of animals was treated with 5ml/kg vehicle alone. In another group, the animals subjected to "sham" operation, the suture was passed into the ICA, as described above, but immediately withdrawn. In the second set dexanabinol, PRS-211,092, PRS-211,095 and PRS-211,220 were used, at 2+0 hours. In the third set dexanabinol, PRS-211,092, PRS-211,095 and PRS-211,220 were administered 1 hour after thread removal (2+1 hours). Laser Doppler Flow (LDF) determined the success of MCAo - a drop of more then 50% in cerebral blood flow was considered as a sign of successful MCAo. Although LDF was a helpful corroborative sign, clinical outcome remained the final inclusion/exclusion criterion, since, with the exception of the PRS-211,220 staircase study, LDF was introduced only after initiation of the study.
# A detailed investigation of neurological performance was carried out on the first, third and the 7th day after the MCAo. Two parameters were examined: posture and the flexion reflex (based on Nokon and Chuang, NeuroReport 9, 1998: 2081-2084). Animals were scored according to their performance:
# One week after the ischemic insult, animals were euthanized with pentobarbitone 100 mg/kg IP. The animals were perfused through the heart with heparinized 4% formaldehyde solution in PBS (pH 7.4). Brains were then removed, and kept in the same solution before preparation for histological evaluation of the brain infarct volume.
# [3] = system: rat model of myocardial ischemia; assay: Rat model of myocardial ischemia and reperfusion; format: in vivo, rats; conditions: given 15 minutes before occlusion; 45 minutes occlusion, 4 hours reperfusion; versus vehicle
# transient MCAo in rats = assay: Transient MCAo evaluated by the staircase test; format: in vivo
# Experimental: The materials for this procedure are identical to those from Physiological Example 5, except for the different concentrations of PRS-211,095. The procedural differences are as follows: • Male Sprague Dawley rats, 230-270 gr (Harlan, Israel) were used. The following compounds and their respective concentrations were tested: • Dexanabinol and analogs PRS-211,095 and PRS-211,220 in PEG ethanol cosolvent 50 mg/ml. Dexanabinol, the analogs and their vehicle were diluted in Intralipid® 20% (Pharmacia) prior to drug administration.
# The procedure is essentially as described in Montoya et al. (Montoya, Campbell-Hope, Pemberton and Dunnet, J. Neurosci. Meth. 36:219-228, 1991) Animals were kept under mild food deprivation for 3-5 days, receiving 15-gr. food once a day (between 16:00 and 17:00) and free access to water. Animals were trained prior to the test for 3-5 days according to the protocol of Sharkey et. al. (Sharkey, Crawford, Butcher and Martson, Stroke 27:2282-2286, 1996).
# In brief, the staircase box contains two rows of seven stairs in each. Two 45 mg food pellets were placed on each step. Animals were placed in the box for 15 minutes sessions. At the end of the session the number of eaten (grasped) and displaced pellets was counted and recorded. Animals were tested twice a day, 4 hours apart. The first session was performed between 8-9 AM and second between 12-13 PM. The animals were trained until they grasped (ate) at least 8 pellets from each set of stairs for two consecutive sessions. Up to one week after the end of the successful training session the animals underwent transient MCAo. Transient MCAo was performed in essentially the same manner as described in Physiological example 5 with the following modification at step i: • Two minutes prior to thread removal rats were re-anesthetized and administered IV with Dexanabinol 5mg/kg, analogs PRS-211,220 or PRS-211,095 at 0.5, 2.5, 5 or 10 mg/kg or vehicle 5 ml/kg. One additional group was sham-treated.
# (§2) Animals were allowed to recover from the surgery for five days. The mild food deprivation was re-employed during the days following the ischemic insult. They were tested in the staircase box using the above method for 9-12 days. Animals were weighed twice a week during this period.
# At the end of the evaluation period, animals were euthanized with pentobarbitone 100 mg/kg IP. The animals were perfused through the heart with heparinized 4% formaldehyde solution in PBS (pH 7.4). Brains were then removed, and kept in the same solution for at least 24h. Then the brains - from the rostral side of the cortex to the cerebellum- were sunk in 30% sucrose in PBS, cryosectioned (20 µm), dried and stained with thionin for histological evaluation of the brain infarct volume. Eight sections at the levels of: 3.3;+2.8;+1.8; +0.8; -0.4;-1.4; -2.2; and -3.4 from Bregma were measured (Swanson, Rat Brain Atlas, 1992). Sections were captured by a CCD camera (V-tech MP-470) and image analyzed (Scion image 1.62A). Infarct size was determined from the series of the 8 sections by either calculation of the infarct volume (mm3) by summing the series of mean lesion areas of two adjacent sections multiplied by the distance between them or calculation of the mean infarct size as percentage of the contralateral hemisphere size; calculation of the mean of the surviving ipsilateral side as percentage of the contralateral hemisphere size; calculation of the mean ipsilateral side ventricle as percentage of the contralateral hemisphere ventricle.
# • a. The infarct size was compared using ANOVA (analysis of variance) followed by Duncan's post hoc test. • b. […]
# [4] = Body weight gain during staircase testing after transient MCAo; format: in vivo, rats; conditions: compared to base line
# Experimental: as §2
# Animals were kept under mild food deprivation during the staircase testing (except during weekends). Under these conditions, the following results were observed: • Sham and PRS-211,095 10 mg/kg treated rats gained the maximal body weight (15 and 17% respectively compared to base line). […] These differences were not statistically different.
# [5] = displacement of [3H]MK-801, rat forebrain membranes, read-out: NMDA BINDING IC50
smiles,measurement,setting,value
"CCCCCCC(C)(C)c1cc(O)c2c(c1)OC(C)(C)[C@H]1CC=C(CSc3ncc[nH]3)C[C@H]21 (single isomer, unassigned) [211,092-000]",NMDA receptor binding / affinity,NMDA receptor,low affinity
same,IC50,NMDA receptor; [5],> 50000 nM
same,inhibition at 10 µM,PGE2,57%
same,inhibition at 10 µM,TNFα,22%
same,inhibition at 10 µM,[1],0%
same,ED50,ear edema model in mice,28 µmol/kg
same,reduction of infarct size,[2],52%
same,"infarct size (AN/AR, AN/LV)",[3],clear decrease in infarct size
"CCCCCCC(C)(C)c1cc(O)c2c(c1)OC(C)(C)[C@H]1CC=C(Cn3cccn3)C[C@H]21 [211,220-000, (+)-(3S,4S)-6,6-Dimethyl-(1,1-dimethylheptyl)-1-hydroxy-9-(pyrazolomethyl)-6a,7,10,10a-tetrahydro-6H-dibenzo[b,d]pyran]",NMDA receptor binding / affinity,NMDA receptor,relatively high affinity
same,IC50,"NMDA receptor; [3H]MK-801 binding, text to Figure 2, read-out: mean IC50",350 nM
same,IC50,NMDA receptor; [5],350 nM
same,inhibition at 10 µM,PGE2,47%
same,inhibition at 10 µM,TNFα,11%
same,inhibition at 10 µM,[1],11%
same,ED50,ear edema model in mice,57 µmol/kg
same,"pellet consumption, improvement over vehicle","transient MCAo in rats; 0.1 mg/kg, contralateral",20-30%
same,"pellet consumption, improvement relative to vehicle alone","transient MCAo in rats; 0.5 mg/kg, contralateral, p<0.05",> 60%
same,"potency relative to PRS-211,095 and dexanabinol","transient MCAo in rats; 0.5 mg/kg, session 3 of the staircase",at least 10 times
same,"pellet consumption, improvement over vehicle","transient MCAo in rats; 2.5 mg/kg, contralateral",20-30%
same,"pellet consumption, improvement over vehicle","transient MCAo in rats; 5.0 mg/kg, contralateral",20-30%
same,Mortality Rate(%),"transient MCAo in rats; Table 5, 0.1 mg/kg IV",25%
same,No. Dead Animals,"transient MCAo in rats; Table 5, 0.1 mg/kg IV",4
same,Mortality Rate(%),"transient MCAo in rats; Table 5, 0.5 mg/kg IV",18.75%
same,No. Dead Animals,"transient MCAo in rats; Table 5, 0.5 mg/kg IV",3
same,Mortality Rate(%),"transient MCAo in rats; Table 5, 2.5 mg/kg IV",30.7%
same,No. Dead Animals,"transient MCAo in rats; Table 5, 2.5 mg/kg IV",4
same,Mortality Rate(%),"transient MCAo in rats; Table 5, 5 mg/kg IV",14%
same,No. Dead Animals,"transient MCAo in rats; Table 5, 5 mg/kg IV",2
same,body weight gain,[4]; 0.1 mg/kg,3%
same,body weight gain,[4]; 0.5 mg/kg,10%
same,body weight gain,[4]; 2.5 mg/kg,5%
same,body weight gain,[4]; 5 mg/kg,4%
